Experiment [1] relates to empty vector-transformed leaf discs. The experiment can be described thus: PSII yield inhibition (chlorophyll fluorescence, imaging PAM) in empty vector-transformed tobacco leaf discs. It counts as cell-based. Particulars: Nicotiana benthamiana, read-out: IC50 of PSII yield inhibition.
Experiment [2] has as its system mutated PPO sequences (e.g. SEQ ID NOs: 1, 30, 31, 11, 37, and 117) as wildtype or with respective mutations, expressed in leaf discs. In words: Herbicide tolerance of transiently transformed tobacco leaf discs expressing wildtype or mutated PPO: tolerance factors from IC50 of PSII yield inhibition versus empty vector. The format is cell-based, Nicotiana benthamiana. The conditions noted are these: 48 h herbicide treatment.

Where two headings read alike, the source gives them in different places.

The values below come from patent US12077768B2, “Plants having increased tolerance to herbicides” (BASF AGRO B.V., priority 2013, dated 2024).

Consider `C#CCN1C(=O)C(F)(F)Oc2cc(F)c(-n3c(=O)n(C)c(=S)n(C)c3=O)cc21` [1,5-dimethyl-6-thioxo-3-(2,2,7-trifluoro-3-oxo-4-(prop-2-ynyl)-3,4-dihydro-2H-benzo[b][1,4]oxazin-6-yl)-1,3,5-triazinane-2,4-dione], for which the IC50 in experiment [1] (empty vector-transformed leaf discs, treated for 48 h) worked out at 11 nM. For the same compound, the “Tolerance factor (IC50 of PSII yield inhibition, transformed versus empty vector-transformed leaf discs)” value was determined as 10 in experiment [2] (Bn_PPO2_A_L371E_F394M, Brassica napus, SEQ ID 117); 13 in experiment [2] (Bn_PPO2_A_L371E_F394V, Brassica napus, SEQ ID 117); 10 in experiment [2] (Bn_PPO2_A_L371Q_F394M, Brassica napus, SEQ ID 117); 14 in experiment [2] (Bn_PPO2_A_L371Q_F394V, Brassica napus, SEQ ID 117); 1 in experiment [2] (Bn_PPO2_A_R99A_F394V, Brassica napus, SEQ ID 117); 1 in experiment [2] (Bn_PPO2_A_wt, Brassica napus, SEQ ID 117). Moreover, the “Tolerance factor (IC50 of PSII yield inhibition, transformed versus empty vector-transformed leaf discs)” value was found to be 50 in experiment [2] (Gm_PPO2_L367E_F390M, Glycine max, SEQ ID 11); 15 in experiment [2] (Gm_PPO2_L367E_F390V, Glycine max, SEQ ID 11); 14 in experiment [2] (Gm_PPO2_L367Q_F390M, Glycine max, SEQ ID 11); 26 in experiment [2] (Gm_PPO2_L367Q_F390V, Glycine max, SEQ ID 11); 14 in experiment [2] (Gm_PPO2_R98A_F390V, Glycine max, SEQ ID 11); 1 in experiment [2] (Gm_PPO2_wt, Glycine max, SEQ ID 11). Also, the “Tolerance factor (IC50 of PSII yield inhibition, transformed versus empty vector-transformed leaf discs)” value in experiment [2] (Os_PPO2_L374E_F397M, Oryza sativa, SEQ ID 37) worked out at 2454; in experiment [2] (Os_PPO2_L374E_F397V, Oryza sativa, SEQ ID 37), 43; in experiment [2] (Os_PPO2_L374Q_F397M, Oryza sativa, SEQ ID 37) it was 14; in experiment [2] (Zm_PPO2_L410E_F433M, Zea mays, SEQ ID 30, 31), 8766; in experiment [2] (Zm_PPO2_L410Q_F433M, Zea mays, SEQ ID 30, 31), 385; in experiment [2] (Zm_PPO2_L410Q_F433V, Zea mays, SEQ ID 30, 31), 15. In experiment [2] (Zm_PPO2_R130A_F433V, Zea mays, SEQ ID 30, 31), the “Tolerance factor (IC50 of PSII yield inhibition, transformed versus empty vector-transformed leaf discs)” value was found to be 8766.
Consider `CC(C)N(C)S(=O)(=O)NC(=O)c1cc(-n2c(=O)cc(C(F)(F)F)n(C)c2=O)c(F)cc1Cl` [Saflufenacil, saflufenacil], for which the concentration for half-maximal inhibition (IC50) in experiment [1] (48 h) came out at 110 nM.

What is called IC50 is the concentration needed to halve the response being measured.
